Laboratory results from BindingDB's records for doi:10.1016/S0960-894X(01)00040-3 (Glaxosmithkline, 2001).

target: Tyrosine--tRNA ligase (Staphylococcus aureus); assay: Inhibitory activity against Staphylococcus aureus tyrosyl tRNA synthetase (YRS) using aminoacylation assay

Row | Compound | IC50 [nM]
1 | CCCCOC(=O)C(NC(=O)[C@@H](N)Cc1ccc(O)cc1)[C@H]1C[C@@H](O)[C@@H](O)[C@@H](C)O1 (stereo partly drawn) [[2-Amino-3-((S)-4-hydroxy-phenyl)-propionylamino]-((2R,4R,5R,6R)-4,5-dihydroxy-6-methyl-tetrahydro-pyran-2-yl)-acetic acid butyl ester] | 3.6
2 | N[C@@H](Cc1ccc(O)cc1)C(=O)NC(C(=O)O)[C@@H]1O[C@H](CO)[C@H](O)[C@H](O)[C@H]1O (stereo partly drawn) [[2-Amino-3-((S)-4-hydroxy-phenyl)-propionylamino]-((2S,3R,4R,5R,6R)-3,4,5-trihydroxy-6-hydroxymethyl-tetrahydro-pyran-2-yl)-acetic acid] | 190
3 | CCCCOC(=O)[C@@H](NC(=O)[C@@H](N)Cc1ccc(O)cc1)[C@@H]1O[C@H](C)[C@H](O)[C@H](O)[C@H]1O [[2-Amino-3-((S)-4-hydroxy-phenyl)-propionylamino]-((2S,3R,4S,5R,6R)-3,4,5-trihydroxy-6-methyl-tetrahydro-pyran-2-yl)-acetic acid (S)-butyl ester] | 0.8
